How the values were obtained:
[1] = tested on: Phosphorylation of STAT5; experiment: STAT5 phosphorylation immunoblot in ruxolitinib-resistant cells; format: cell-based; details: ruxolitinib 0.5-2 μM
[2] = target: PIM 3 (Homo sapiens, UniProt Q86V86); experiment: PIM kinase biochemical profile (Ki)
[3] = target: Flt3 (Homo sapiens, UniProt P36888); experiment: Flt3 inhibition (IC50); format: biochemical
[4] = tested on: BA/F3 cells expressing wild type JAK2; experiment: Apoptosis by Annexin V staining and flow cytometry; format: cell-based; details: 48 hours after treatment
[5] = tested on: dogs; experiment: Non-GLP toxicology studies in dogs (7-day repeat); format: in vivo
Procedure: (§1) Dose calculations were determined from GLP toxicology studies in rats and non-GLP toxicology studies in dogs.
In dogs, the highest non-severely toxic dose was not observed in 7-day repeat studies at doses as high as 200 mg/kg, which equates to 7400 mg per person or greater, calculated as: […]

[6] = tested on: BA/F3-EpoR-JAK2 V617F cells; experiment: Cell proliferation by viable cell counts; format: cell-based, murine; design: dose or concentration left out as unconfirmed; details: Compound 1, 5 days
[7] = tested on: BA/F3 cells expressing wild type JAK2; experiment: Cell proliferation by viable cell counts; format: cell-based, murine; details: wild-type JAK2, higher concentrations, 5 days
[8] = tested on: rats; experiment: GLP toxicology studies in rats; format: in vivo, rat
Procedure: as §1

[9] = target: PIM 1 (Homo sapiens, UniProt P11309); experiment: PIM kinase biochemical profile (Ki)
[10] = tested on: parental BA/F3 cells; experiment: Cell proliferation; format: cell-based, murine
[11] = tested on: PC3 prostate adenocarcinoma xenograft; experiment: PC3 prostate adenocarcinoma mouse xenograft model; format: in vivo
[12] = target: PIM 2 (Homo sapiens, UniProt Q9P1W9); experiment: PIM kinase biochemical profile (Ki)
[13] = tested on: ruxolitinib-resistant BA/F3-EpoR-JAK2 V617F cells; experiment: Proliferation of ruxolitinib-resistant cells by viable cell counts; format: cell-based; details: ruxolitinib 0.5-2 μM or Compound 1 0.25-1 μM, 5 days
[14] = tested on: healthy control CD34+ cells; experiment: Hematopoietic progenitor colony assay in methylcellulose; format: cell-based, human; details: 1-2 μM, 14 days
Text: (§2) Hematopoietic progenitor colonies were counted after 14 days.

[15] = tested on: MPN patient CD34+ hematopoietic progenitor cells; experiment: as above; format: cell-based, human; details: 1-2 μM, colonies counted after 14 days
Text: as §2

[16] = tested on: homozygous JAK2 V617F knock-in mouse model of MF; experiment: Homozygous JAK2 V617F knock-in mouse model of MF; format: in vivo
Procedure: Bone marrow cells from homozygous JAK2 V617F knock-in mice were transplanted into lethally irradiated C57BL/6 recipients to obtain a cohort of MF mice with similar age. […] All mice were treated for 6 weeks.

[17] = tested on: PC3 cells; experiment: Colony formation assay of prostate adenocarcinoma; format: cell-based; details: Homo sapiens, PC-3; RPMI, pyruvate, 0.5% FBS; read-out: EC50 against PC3 cells (colony formation)
Procedure: PC3 cells were seeded in Roswell Park Memorial Institute (RPMI) media with pyruvate and 10% fetal bovine serum (FBS).

[18] = tested on: phospho-BAD; experiment: Reduction of phospho-BAD (PIM-1 biomarker); format: cell-based; details: compared to Compound A
Text: The results of this assay are illustrated as a plot of the % of the control against the compound concentration (FIG. 15).

[19] = tested on: SET-2 cells; experiment: Cell proliferation by viable cell counts; format: cell-based; details: 5 days
[20] = tested on: JAK2 V617F-positive HEL cells; experiment: Cell proliferation by viable cell counts; format: cell-based, human; details: 5 days
[21] = tested on: MPL mutant (MPL W515L) mice; experiment: MPL W515L transplantation mouse model; format: in vivo
Text: (§3) These animals rapidly develop marked thrombocytosis and leukocytosis. At the time of sacrifice, MPL W515L expressing mice show splenomegaly and bone marrow fibrosis.

[22] = tested on: JAK2 V617F-positive UKE-1 cells; experiment: Cell proliferation by viable cell counts; format: cell-based, human; details: 5 days
[23] = tested on: HSC maintenance, TNFα and WNT signaling pathways; experiment: RNA-sequencing of LSK cells from treated homozygous JAK2 V617F mice; format: in vivo, mouse; details: purified LSK cells, compared with vehicle
[24] = tested on: HEL, BA/F3-EpoR-JAK2 V617F, UKE-1 and SET-2 cells expressing JAK2 V617F; experiment: Apoptosis by Annexin V staining and flow cytometry; format: cell-based; details: 48 hours after treatment, JAK2 V617F-expressing cell lines
[25] = tested on: BA/F3 MPL W515L cells; experiment: Cell proliferation; format: cell-based, murine; details: 0.25-1 μM
Text: as §3

[26] = Metabolic stability; format: in vitro ADME; details: compared to Compound A
[27] = Compound 1 150 mg/kg, ruxolitinib 60 mg/kg, oral gavage once daily, 6 weeks

Flt3, sequence (P36888 27-993, species assumed): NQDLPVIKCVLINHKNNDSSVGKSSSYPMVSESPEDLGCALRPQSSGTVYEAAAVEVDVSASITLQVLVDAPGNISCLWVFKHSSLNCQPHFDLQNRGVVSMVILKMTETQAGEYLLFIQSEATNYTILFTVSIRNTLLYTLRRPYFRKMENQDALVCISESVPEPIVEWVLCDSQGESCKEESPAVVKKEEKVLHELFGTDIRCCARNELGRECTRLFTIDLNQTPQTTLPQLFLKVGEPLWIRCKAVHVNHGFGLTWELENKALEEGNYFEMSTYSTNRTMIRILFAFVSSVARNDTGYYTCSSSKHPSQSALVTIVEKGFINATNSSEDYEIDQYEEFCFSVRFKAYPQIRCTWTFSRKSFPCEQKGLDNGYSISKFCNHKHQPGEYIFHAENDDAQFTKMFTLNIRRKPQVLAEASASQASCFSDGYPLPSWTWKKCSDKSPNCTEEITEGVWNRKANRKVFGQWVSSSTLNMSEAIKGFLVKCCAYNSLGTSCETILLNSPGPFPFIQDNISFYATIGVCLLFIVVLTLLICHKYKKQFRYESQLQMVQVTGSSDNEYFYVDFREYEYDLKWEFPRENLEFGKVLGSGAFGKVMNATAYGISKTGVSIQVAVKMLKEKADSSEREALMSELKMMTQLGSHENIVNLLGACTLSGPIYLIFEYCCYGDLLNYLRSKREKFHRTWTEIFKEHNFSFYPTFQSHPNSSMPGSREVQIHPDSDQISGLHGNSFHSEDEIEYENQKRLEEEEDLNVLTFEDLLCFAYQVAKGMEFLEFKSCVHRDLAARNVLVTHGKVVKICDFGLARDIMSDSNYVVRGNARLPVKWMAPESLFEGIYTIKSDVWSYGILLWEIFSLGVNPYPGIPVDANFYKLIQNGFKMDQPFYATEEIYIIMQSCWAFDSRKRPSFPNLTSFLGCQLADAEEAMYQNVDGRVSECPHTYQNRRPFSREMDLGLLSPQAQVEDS
PIM 1, sequence (P11309 whole entry, species assumed): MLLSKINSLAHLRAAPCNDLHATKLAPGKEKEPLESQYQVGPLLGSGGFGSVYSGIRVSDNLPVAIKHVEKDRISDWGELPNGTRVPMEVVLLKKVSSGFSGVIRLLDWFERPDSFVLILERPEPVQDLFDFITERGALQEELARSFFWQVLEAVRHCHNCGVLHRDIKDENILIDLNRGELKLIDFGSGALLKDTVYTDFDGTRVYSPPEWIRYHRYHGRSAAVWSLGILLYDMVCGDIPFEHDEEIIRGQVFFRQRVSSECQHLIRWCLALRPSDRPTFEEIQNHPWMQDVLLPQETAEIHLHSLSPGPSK
PIM 2, sequence (Q9P1W9 whole entry, species assumed): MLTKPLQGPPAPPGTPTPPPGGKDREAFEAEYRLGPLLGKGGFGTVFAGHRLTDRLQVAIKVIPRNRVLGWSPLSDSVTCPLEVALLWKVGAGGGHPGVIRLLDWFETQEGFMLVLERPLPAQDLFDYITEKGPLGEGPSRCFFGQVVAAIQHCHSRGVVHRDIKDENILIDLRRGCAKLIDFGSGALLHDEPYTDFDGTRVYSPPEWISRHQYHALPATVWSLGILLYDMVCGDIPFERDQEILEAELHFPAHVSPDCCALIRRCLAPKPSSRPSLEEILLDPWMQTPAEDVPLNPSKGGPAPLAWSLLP

Q: With N#CC[C@H](C1CCCC1)n1cc(-c2ncnc3[nH]ccc23)cn1 [ruxolitinib] as the compound, how does the “inhibition of STAT5 phosphorylation” value [1] read?
A: not inhibited

Q: Which Ki [2] does the source give for CN1CCC(CNc2ccc3ncc(-c4cccc(OC(F)(F)F)c4)n3n2)CC1 [Compound A, reference compound] here?
A: 20 nM

Q: What about the IC50 [3] of the same compound?
A: 3 nM

Q: With CC(C)(O)[C@H]1CC[C@H](Nc2ccc3ncc(-c4cccc(C(F)(F)F)c4)n3n2)CC1 [Compound 1, 2-((1R,4R)-4-((3-(3-(trifluoromethyl)phenyl)imidazo[1,2-b]pyridazin-6-yl)amino)cyclohexyl)propan-2-ol] as the compound, how does the “apoptosis (Annexin V)” value [4] read?
A: not in wild type JAK2-expressing BA/F3 cells

Q: And the “highest non-severely toxic dose” value ([5]; dog, 7-day repeat studies, not observed at doses as high as)?
A: ≥ 200 mg/kg

Q: What about the “human equivalent of dog highest non-severely toxic dose” value ([5]; per person) of the same compound?
A: ≥ 7400 mg

Q: What about the reduction of proliferation [6] of the same compound?
A: ~90%

Q: And the inhibition of proliferation [7]?
A: only modestly inhibited

Q: What about the “human equivalent of rat severely toxic dose in 10 percent of animals” value ([8]; average per person) of the same compound?
A: 5286 mg

Q: What about the “severely toxic dose in 10 percent of animals” value ([8]; rat, GLP toxicology) of the same compound?
A: 500 mg/kg

Q: What about the Ki [9] of the same compound?
A: 5 nM

Q: What about the concentration reducing proliferation [10] of the same compound?
A: greater than 1 M

Q: And the “percentage of tumor growth inhibition (% TGI)” value ([11]; 125 mg/kg)?
A: 59%

Q: And the “percentage of tumor growth inhibition (% TGI)” value ([11]; 200 mg/kg)?
A: 40%

Q: What about the Ki [12] of the same compound?
A: 239 nM

Q: And the “inhibition of cell proliferation” value [13]?
A: markedly inhibited

Q: What about the “effect on hematopoietic progenitor colonies” value [14] of the same compound?
A: minimal effect

Q: What about the “inhibition of hematopoietic progenitor colonies” value [15] of the same compound?
A: significantly inhibited

Q: What about the Ki [2] of the same compound?
A: 42 nM

Q: What about the “fibrosis in bone marrow and spleen (reticulin staining)” value ([16]; Compound 1 150 mg/kg, ruxolitinib 60 mg/kg, 6 weeks) of the same compound?
A: marked reduction of fibrosis

Q: And the neutrophil counts [16, 27]?
A: caused reduction

Q: What about the “peripheral blood white blood cell (WBC) counts” value [16, 27] of the same compound?
A: caused reduction

Q: And the spleen size ([16]; homozygous JAK2 V617F mice, versus vehicle)?
A: significantly reduces

Q: What about the “human equivalent of efficacious dose level in mouse myelofibrosis model (150 mg/kg)” value ([16]; per person) of the same compound?
A: 925 mg

Q: What about the EC50 [17] of the same compound?
A: 143 nM

Q: What about the “potency at reducing phospho-BAD” value [18] of the same compound?
A: more potent

Q: And the inhibition of proliferation [19]?
A: dose dependent inhibition

Q: And the inhibition of proliferation [20]?
A: markedly inhibited

Q: What about the splenomegaly [21] of the same compound?
A: significant decrease

Q: What about the IC50 [3] of the same compound?
A: 279 nM

Q: What about the inhibition of proliferation [22] of the same compound?
A: markedly inhibited

Q: And the “expression of genes relating to HSC maintenance, TNFα and WNT signaling pathways” value [23]?
A: significantly downregulated

Q: And the “apoptosis (Annexin V)” value [24]?
A: significant apoptosis

Q: And the reduction of proliferation [25]?
A: significantly reduced

Q: What about the metabolic stability [26] of the same compound?
A: improved metabolic stability
